Measured values: patent US4835185A, “Immunomodulator for improving commercial performance of domestic animals” (Iowa State University Research Foundation, Inc., priority 1987, dated 1989)
Like-named read-outs stand apart in the source and are kept apart here.

What was measured:
[1] = test system: cortisol in plasma; assay: Lamb trials: plasma cortisol; type: in vivo, lambs (sheep); conditions: * p<.05
Source text: The lambs used in Trial 1 consisted of medium-frame crossbred wethers and ewes weighing 26 to 31 kg. The lambs used in Trial 2 consisted of medium-framced crossbred rams weighing 18 to 25 kg. Each animal was raised as a single. The lambs were housed in a temperature controlled room in individual pens with nipple waterers. When received, the lamps were vaccinated for enterotoxemia. They were allowed to adjust to the pens and the environment for 10 days. One day before the trial began, the lambs were sheared and placed on their respective dietary treatments. The lamps were allotted blocking by weight and sex into two dietary treatment groups. Growth and feed consumption were measured bi-weekly. All lamb weights were taken after a 12 to 16 hour fast. The animals were slaughtered at 50 kg in the Iowa State University Meat laboratory facilities at Ames, Iowa. At slaughter, the lamb's internal organs and wool were weighed and sampled, loin eye area and back fat measured, and carcasses separated into fat, lean, and bone.
The SMB (soybean meal-containing) and the CGM (corn-gluten-containing) diets (compositions given in Table A) were fed twice per day in quantities ensuring that feed was before the lambs at all times. The diets were calculated to be equivalent to each other with respect to metabolizable protein, ether extract, fiber, and minerals with the exception of calcium and phosphorus. […] The CGM diet was calculated to contain slightly more energy (TDN 81.7 vs. 79.0, NEm 1.88 v. 1.86, Neg. 1.23 vs. 1.22). […] The soybean meal ingredient contained about 3.5 wt % leucine, while the corn gluten meal ingredient contained about 15 wt % leucine. The CGM diet was therefore higher in leucine than the SBM diet, containing an estimated 16 wt % leucine as compared with an estimated 8 wt % leucine based on total crude protein in the diet.
^(7) Amount of cortisol in plasma (ng/ml).

[2] = Rumen degradation of KIC (nylon bag technique); parameters: species or system ruminants (rumen)
Source text: KIC pellets were made by mixing zein, ethanol, KIC, limestone, bentonite, and water in a ratio of […]. This mixture was extruded through a die of 15 mm directly into a vat of liquid nitrogen. The shattered pellets were spread out and allowed to air-dry for 2 days. The pellets were coated with zein (2% w/w) by spraying with a 30% zein solution made in 80% ethanol. The pellets again were air-dryed. Control pellets were made similarly to the KIC pellets except that the mixture was zein, limestone, ethanol, bentonite, and water in a ratio of 12:12:7.5:2.7:1. When KIC pellets were placed in the rumen (nylon bag technique), […] of the KIC added was present in the bags after 24 hr of rumen fermentation. It was estimated that uncoated KIC was 95% degraded in the rumen.
Therefore, an attempt was made to protect KIC from ruminal degradation. KIC pellets, resistant to rumen degradation, were made by mixing zein, ethanol, KIC, limestone, bentonite and water in a ratio of 8.3:7.4:5.2:3:2:1. This mixture was extruded through a die of 15 mm directly into a vat of liquid nitrogen. The shattered pellets were spread out and allowed to air-dry for two days. The dried pellets were coated with zein (2% w/w) by spraying with a 30% zein solution made in 80% ethanol. The pellets again were air-dried. Control pellets were made similar to the KIC pellets except that the mixture was zein, limestone, ethanol, bentonite and water in a ratio of 12:12:7.5:2.7:1. When KIC pellets were placed in the rumen (nylon bag technique), 45% of the KIC added was present in the bags after 36 hr of rumen digestion.

[3] = test system: lymphocytes; assay: Study of Immune Function: lymphocyte blastogenesis, cattle (experiment 3); type: cell-based, castrated male cattle
[4] = test system: white blood cells; assay: White blood cell number and differential, sheep (experiments 1 and 2); type: in vivo, lambs (sheep)
Experimental: A study was conducted to determine if KIC administration can alter white blood cell function, specifically T lymphocyte function, in growing sheep and cattle. Eighteen medium-framed crossbred male lambs were used in experiment 1. Lambs were randomly assigned to either a control diet (n=10) or a diet supplemented with 1% KIC (n=8). Animals were fed ad libitum in individual cages. At 100 and 108 days of treatment, 50-ml blood samples were collected for lymphocyte and neutrophil function tests.
In experiment 2, 19 intact crossbred male lambs were randomly assigned to either a saline treatment group (n=9) or a KIC treatment group (n=10). Control lambs were injected with 50 ml of a saline solution, and KIC treated lambs were injected with 50 ml of a 5% solution of KIC (sodium salt) daily (~2.5 g KIC/day). All injections were made intraperitoneally in the right posterior abdominal region after disinfection of the area. At day 60 and day 66 of treatment, blood was collected for lymphocyte and neutrophil function tests.
Sheep in experiments 1 and 2 were fed diets based on a mixture of 48% corn, 5% molasses, 20% alfalfa meal, 0.8% limestone, 0.6% salt-mineral-vitamin mix and ~25% of a protein supplement (either soybean meal, corn gluten meal, or corn gluten feed). The diets were isonitrogenous and analyzed to be ~20% crude protein and 89% dry matter. The KIC diet consisted of the basal diet to which was added 1% calcium-KIC, whereas the control diet was the basal diet plus 0.25% calcium carbonate.
Blood was collected by jugular venapuncture into acid-citrate-dextrose anticoagulant. Lymphocytes and neutrophils were isolated, and lymphocyte blastogenesis and neutrophil function evaluated. KIC was obtained from SOBAC, Paris, France. Zein was purchased from Freeman Industries, Tuckahoe, NY. Each experiment was statistically analyzed by analysis of variance. In sheep experiments, individual animals were the experimental units, whereas pen means were analyzed in the cattle experiment.
^2 Total white blood cell number (WBC) is the cells per mm^3.

CC(C)CC(=O)C(=O)O [KIC, alpha-ketoisocaproate]
CORTISOL: amount of cortisol in plasma ([1]; Trial 1, CGM diet, 1% KIC (0%: 1.04)): .65 ng/mL | CORTISOL: amount of cortisol in plasma ([1]; Trial 1, SBM diet, 1% KIC (0%: .99)): .83 ng/mL | CORTISOL: amount of cortisol in plasma ([1]; Trial 2, CGM diet, 1% KIC (0%: 3.77)): 2.43 ng/mL | CORTISOL: amount of cortisol in plasma ([1]; Trial 2, SBM diet, 1% KIC (0%: 2.70)): 2.25 ng/mL | degraded ([2]; "as much as", unprotected, read-out: KIC that may be lost by rumen destruction): 90 to 95% | degraded ([2]; estimated, Example IV, read-out: uncoated KIC degraded in the rumen): 95% | degraded ([2]; preliminary experiments, Example VI, read-out: uncoated KIC degraded in the rumen): 95% | BKG: background blastogenesis ([3]; Exp. 3, oral coated 0.02% KIC (control 1410)): 1550 Counts/min per 2 × 10^5 cells | PWM: pokeweed mitogen-stimulated blastogenesis ([3]; Exp. 3, oral coated 0.02% KIC (control 23100)): 27100 Counts/min per 2 × 10^5 cells | PHA: phytohemagglutinin-stimulated blastogenesis ([3]; Exp. 3, oral coated 0.02% KIC (control 40500)): 43200 Counts/min per 2 × 10^5 cells | ConA: concanavalin A-stimulated blastogenesis ([3]; Exp. 3, oral coated 0.02% KIC (control 40900)): 48800 Counts/min per 2 × 10^5 cells | BKG: background blastogenesis ([3]; Exp. 3, oral coated 0.07% KIC (control 1410)): 2080 Counts/min per 2 × 10^5 cells | PWM: pokeweed mitogen-stimulated blastogenesis ([3]; Exp. 3, oral coated 0.07% KIC (control 23100)): 38000 Counts/min per 2 × 10^5 cells | PHA: phytohemagglutinin-stimulated blastogenesis ([3]; Exp. 3, oral coated 0.07% KIC (control 40500)): 74300 Counts/min per 2 × 10^5 cells | ConA: concanavalin A-stimulated blastogenesis ([3]; Exp. 3, oral coated 0.07% KIC (control 40900)): 75400 Counts/min per 2 × 10^5 cells | BKG: background blastogenesis ([3]; Exp. 3, oral coated 0.20% KIC (control 1410)): 1690 Counts/min per 2 × 10^5 cells | PWM: pokeweed mitogen-stimulated blastogenesis ([3]; Exp. 3, oral coated 0.20% KIC (control 23100)): 30500 Counts/min per 2 × 10^5 cells | PHA: phytohemagglutinin-stimulated blastogenesis ([3]; Exp. 3, oral coated 0.20% KIC (control 40500)): 56900 Counts/min per 2 × 10^5 cells | ConA: concanavalin A-stimulated blastogenesis ([3]; Exp. 3, oral coated 0.20% KIC (control 40900)): 54400 Counts/min per 2 × 10^5 cells | % SEG ([4]; Exp. 1, oral uncoated KIC 1% (control 38), p<.89): 39% of Total WBC | % LYM ([4]; Exp. 1, oral uncoated KIC 1% (control 61), p<.34): 59% of Total WBC | % EOS ([4]; Exp. 1, oral uncoated KIC 1% (control .7), p<.12): 1.7% of Total WBC | % EOS ([4]; Exp. 2, IP injected KIC (saline 3.4), p<.01): 1.7% of Total WBC | % SEG ([4]; Exp. 2, IP injected KIC (saline 41), p<.13): 34% of Total WBC | % LYM ([4]; Exp. 2, IP injected KIC (saline 48), p<.04): 61% of Total WBC
